According to US20240218059A1, “TGF-Beta 1 INHIBITORS FOR PREVENTING AND TREATING SARS-COV-2” (The Regents of the University of Colorado, A Body Corporate, priority 2020, published 2024):

Key:
active TGF-β1 signaling = assay: inhibition of active TGF-β1 signaling in MLEC luciferase reporter cells; type: cell-based, mink
Description: In these experiments, SB505124 and galunisertib (Fisher, Inc.) inhibitors were added at 1-2 uM concentrations to MLEC plated in 96-well plates using a 1 hour pre-incubation before addition of human active TGF-β1 in […] concentrations with continued presence of the inhibitor for 18 hours overnight in standard conditions as described in Example 2 methods. A neutraceutical, the green tea catechin ECGC (Sigma) was also tested. Luciferase signals were determined after cell lysis and compared as in Example 2.

[1] = test system: TGF-β1 signaling caused by NSP15 activation of human latent TGF-β1; type: cell-based, mink; conditions: 1 hour pre-incubation; 2 μg/ml of antibody or 1-2 μM small molecule; 0-2.4 nM NSP15 plus 2 nM latent human TGF-β1; MLEC; FIG. 8
human latent TGF-β1 = target: T1, human latent TGF-β1 (Homo sapiens, UniProt P01137); type: cell-based; conditions: peptide incubated 45 minutes at 37° C. with 2 nM human latent TGF-β1, then 18 hours on MLEC; FIG. 5
T1 construct: purchased Acrobio, Inc
T1 sequence (P01137 30-278 limits assumed): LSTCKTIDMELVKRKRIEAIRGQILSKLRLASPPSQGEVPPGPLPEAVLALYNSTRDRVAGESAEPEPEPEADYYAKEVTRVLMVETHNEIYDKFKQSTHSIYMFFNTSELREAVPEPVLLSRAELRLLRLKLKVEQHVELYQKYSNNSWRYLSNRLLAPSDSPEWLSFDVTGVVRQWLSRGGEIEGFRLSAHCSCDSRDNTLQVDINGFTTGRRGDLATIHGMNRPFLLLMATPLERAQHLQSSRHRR

O=C(O[C@@H]1Cc2c(O)cc(O)cc2O[C@@H]1c1cc(O)c(O)c(O)c1)c1cc(O)c(O)c(O)c1 [ECGC]
inhibition of active TGF-β1 signaling at higher concentrations (active TGF-β1 signaling; 80 uM, subsequent experiments, not shown): 80%
effectiveness at blocking active TGF-β1 signaling (active TGF-β1 signaling; 1-2 μM concentrations, MLEC, FIG. 7): not effective

Cc1cccc(-c2[nH]c(C(C)(C)C)nc2-c2ccc3c(c2)OCO3)n1 [SB505124]
block of NSP15 mediated effects on TGF-β1 signaling [1]: block NSP15 mediated effects on TGF-β1 signaling

Cc1cccc(-c2nn3c(c2-c2ccnc4ccc(C(N)=O)cc24)CCC3)n1 [galunisertib]
block of NSP15 mediated effects on TGF-β1 signaling [1]: block NSP15 mediated effects on TGF-β1 signaling

DKRFKQDGGWSHWSPW [TSP1]
activation of latent TGF-β1 (luciferase signal, RLU) (human latent TGF-β1): not a significant activator of latent TGF-β1

KFILALRKLLFESEGP [SCR]
activation of latent TGF-β1 (luciferase signal, RLU) (human latent TGF-β1): not

LLIGLAKRFKESPFEL [NSP15 KRFK-region peptide, 16 amino acid synthetic peptide centered on the SARS-CoV2 NSP15 KRFK region]
activation of latent TGF-β1 (luciferase signal, RLU) (human latent TGF-β1): activates latent TGF-β1
